Among the test systems are RPMI-8226; MDA-MB-435; NCI/ADR-RES; DU-145; SK-MEL-28; CCRF-CEM; SF-268; U-251; KM12; SNB-75; HCT-116; K562; A549; MDA-N; IGROV-1; OVCAR-8; MDA-MB-231; HCC 2998; SN12C; SF-539.
Holding throughout (assay): NCI anticancer screen, dose series, 48 h

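Five compound concentrations were applied to cells in 96-well plates for 48 hours; endpoints were derived by simple linear interpolation of the resulting dose-response curve. GI50: concentration for 50% inhibition of growth.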 The source made the active and inactive calls. Rule as the data show it: active = GI50 up to about 1.1 µM and inactive = higher.

In the case of `COc1cc2c(NCCCCCCO[N+](=O)[O-])ncnc2c(OC)c1OC`, the GI50 in the test on RPMI-8226 was 10.2 µM (inactive); with MDA-MB-435 it was 18.1 µM (inactive); in the test on NCI/ADR-RES, 21.7 µM (inactive); in the test on DU-145 it was 24.5 µM (inactive); in the test with SK-MEL-28 it was 45.1 µM (inactive); in the test on CCRF-CEM it was 19.8 µM (inactive). For the same molecule, the GI50 in the test with SF-268 was 25.5 µM (inactive); in the test on U-251, 35.2 µM (inactive); in the test on KM12 it was 16.2 µM (inactive); in the test with SNB-75, > 69.5 µM (inactive); with HCT-116, 20.6 µM (inactive); in the test with K562, 29.2 µM (inactive). The GI50 in the test with A549 was 28.7 µM (inactive); with MDA-N, 20.6 µM (inactive); in the test on IGROV-1 it was 23.1 µM (inactive); with OVCAR-8, 23.9 µM (inactive); with MDA-MB-231, 14.2 µM (inactive); in the test on HCC 2998 it was 0.399 µM (active). Besides, the GI50 with SN12C is 28.7 µM (inactive); in the test on SF-539, 24.7 µM (inactive).

For `C=C(CN(C)C)C(=O)c1ccccc1OC`, the GI50 in the test with RPMI-8226 is 5.28 µM (inactive); in the test on MDA-MB-435 it was 19.5 µM (inactive); in the test with NCI/ADR-RES, 20.7 µM (inactive); in the test with DU-145 it was > 45 µM (inactive); in the test with SK-MEL-28 it was 20.2 µM (inactive); in the test on CCRF-CEM, 2.51 µM (inactive). The GI50 with SF-268 was 25.2 µM (inactive); in the test on U-251, 24.5 µM (inactive); in the test on KM12, 25.3 µM (inactive); with SNB-75, 27.2 µM (inactive); in the test on HCT-116, 15.6 µM (inactive); in the test on K562, 4.35 µM (inactive). Also, the GI50 with A549 is > 67.8 µM (inactive); in the test with MDA-N, 18.2 µM (inactive); with IGROV-1 it was 24.4 µM (inactive); in the test on OVCAR-8, 21.6 µM (inactive); in the test on MDA-MB-231 it was 14.4 µM (inactive); with HCC 2998 it was 34.6 µM (inactive). Also, the figures for the GI50 in the test with SN12C and in the test with SF-539 were 18.9 µM (inactive) and 15.6 µM (inactive), respectively.

With `CCOC(=O)C1C(=O)CC(O)(c2ccccc2)C(C(=O)OCC)C1c1ccc(N(C)C)cc1` (stereo not given), the GI50 was 13.3 µM (inactive) in the test with RPMI-8226; 5.04 µM (inactive) in the test on MDA-MB-435; 26.6 µM (inactive) with NCI/ADR-RES; 57.1 µM (inactive) with DU-145; 45.6 µM (inactive) in the test on SK-MEL-28; 17.3 µM (inactive) in the test on CCRF-CEM. The GI50 is 24.9 µM (inactive) with SF-268; 24.7 µM (inactive) in the test on U-251; 20.3 µM (inactive) in the test on KM12; 24.9 µM (inactive) in the test on SNB-75; 23.8 µM (inactive) in the test with HCT-116; 6.21 µM (inactive) in the test with K562. Moreover, the GI50 in the test on A549 is 35.5 µM (inactive); in the test on MDA-N it was 6.44 µM (inactive); with IGROV-1, 31.2 µM (inactive); in the test on OVCAR-8, 20 µM (inactive); in the test with MDA-MB-231, 28.2 µM (inactive); in the test on HCC 2998, 34.4 µM (inactive). Further, the GI50 in the test on SN12C is 50.2 µM (inactive); in the test on SF-539 it was 18.1 µM (inactive).

Turning to `Nc1ccc2c(=O)cc(-c3cccs3)[nH]c2n1`, the GI50 in the test with RPMI-8226 is 1.54 µM (inactive); in the test on MDA-MB-435 it was 0.285 µM (active); in the test with NCI/ADR-RES, 1.06 µM (active); in the test with DU-145, 5.9 µM (inactive); with SK-MEL-28 it was 4.32 µM (inactive); in the test on CCRF-CEM, 2.21 µM (inactive). Moreover, the GI50 in the test with SF-268 was 8.93 µM (inactive); in the test on U-251, 2.75 µM (inactive); with KM12, 0.535 µM (active); in the test with SNB-75 it was 2.46 µM (inactive); in the test on HCT-116 it was 1.25 µM (inactive); in the test on K562, 0.847 µM (active). Further, the GI50 was 3.65 µM (inactive) in the test on A549; 0.223 µM (active) in the test with MDA-N; 2.64 µM (inactive) in the test with IGROV-1; 2.86 µM (inactive) in the test with OVCAR-8; 11.8 µM (inactive) in the test on MDA-MB-231; 2.19 µM (inactive) in the test on HCC 2998. For the same molecule, the GI50 is 5.16 µM (inactive) with SN12C and 1.48 µM (inactive) in the test on SF-539.

For the molecule `O=[N+]([O-])c1cc(F)ccc1S(=O)(=O)c1ccccc1`, the GI50 in the test with RPMI-8226, with MDA-MB-435, with NCI/ADR-RES, with DU-145, in the test on SK-MEL-28 and in the test on CCRF-CEM was > 10 µM (inactive) in each case. Also, the GI50 in the test on SF-268, with U-251, in the test on KM12, in the test on SNB-75, with HCT-116 and in the test on K562 was > 10 µM (inactive) throughout. Moreover, the GI50 in the test on A549, in the test on MDA-N, in the test on IGROV-1, with OVCAR-8, in the test with MDA-MB-231 and in the test with HCC 2998 was > 10 µM (inactive) throughout. Moreover, the GI50 in the test with SN12C and with SF-539 was > 10 µM (inactive) each time.

For `NC(=O)c1ccc(N)nc1` [6-AMINONICOTINAMIDE], the GI50 in the test on RPMI-8226 was 9.75 µM (inactive); with MDA-MB-435, 4.66 µM (inactive); in the test with NCI/ADR-RES, > 245 µM (inactive); in the test on DU-145, 2.3 µM (inactive); in the test on SK-MEL-28, 3.37 µM (inactive); with CCRF-CEM, 12.3 µM (inactive). Further, the GI50 in the test with SF-268 was 19.1 µM (inactive); with U-251 it was 1.85 µM (inactive); in the test on KM12, 48.1 µM (inactive); with SNB-75, 15.6 µM (inactive); in the test with HCT-116, > 187 µM (inactive); in the test on K562 it was 16.7 µM (inactive). In addition, the GI50 in the test on A549 is 54.5 µM (inactive); in the test with MDA-N, 14.3 µM (inactive); in the test on IGROV-1, 108 µM (inactive); in the test with OVCAR-8, 17.6 µM (inactive); in the test on MDA-MB-231, 39.4 µM (inactive); in the test on HCC 2998, 31.5 µM (inactive). Also, the results for the GI50 in the test with SN12C and in the test on SF-539 were 15.9 µM (inactive) and 8.43 µM (inactive), respectively.

For `CC(=O)OC(C)(C)/C=C/C(=O)[C@](C)(O)[C@H]1[C@H](O)C[C@@]2(C)[C@@H]3CC=C4[C@@H](C=C(O)C(=O)C4(C)C)[C@]3(C)C(=O)C[C@]12C` [CUCURBITACIN E], the GI50 with RPMI-8226 is 0.041 µM (active); in the test with MDA-MB-435, 0.604 µM (active); in the test with NCI/ADR-RES it was 0.129 µM (active); with DU-145, 0.0262 µM (active); in the test on SK-MEL-28 it was 0.024 µM (active); with CCRF-CEM, 0.0298 µM (active). Besides, the GI50 was 0.0275 µM (active) in the test with SF-268; 0.0203 µM (active) in the test with U-251; 0.504 µM (active) with KM12; 0.0187 µM (active) with SNB-75; 0.034 µM (active) with HCT-116; 0.0681 µM (active) with K562. Besides, the GI50 with A549 is 0.0296 µM (active); in the test with MDA-N, 0.0518 µM (active); in the test on IGROV-1, 0.0366 µM (active); in the test on OVCAR-8, 0.166 µM (active); in the test on MDA-MB-231, 0.0537 µM (active); in the test on HCC 2998, 0.0501 µM (active). Further, the GI50 in the test with SN12C was 0.0394 µM (active); in the test with SF-539, 0.023 µM (active).

Consider `O=P(O)(NCCCl)NCCCl` [PALIFOSFAMIDE], for which the GI50 in the test on RPMI-8226 was > 89.5 µM (inactive); in the test on MDA-MB-435, > 100 µM (inactive); in the test on NCI/ADR-RES, > 100 µM (inactive); in the test with DU-145, 92.9 µM (inactive); in the test with SK-MEL-28 it was > 100 µM (inactive); in the test with CCRF-CEM, 47.5 µM (inactive). The GI50 in the test with SF-268 is 57.8 µM (inactive); with U-251 it was > 10 µM (inactive); with KM12 it was > 10 µM (inactive); in the test with SNB-75, > 65.6 µM (inactive); with HCT-116, > 100 µM (inactive); in the test on K562 it was > 100 µM (inactive). Moreover, the GI50 was 81.5 µM (inactive) in the test on A549; > 100 µM (inactive) with MDA-N; > 100 µM (inactive) in the test on IGROV-1; > 10 µM (inactive) in the test on OVCAR-8; > 100 µM (inactive) with MDA-MB-231; > 100 µM (inactive) in the test with HCC 2998. Besides, the figures for the GI50 in the test with SN12C and with SF-539 were 63 µM (inactive) and 52.5 µM (inactive), respectively.

The values above are taken from ChEMBL document CHEMBL1201862, “PubChem BioAssay data set” (2004).
